Values quoted from earlier work, collected in patent publication US8679103B2, “Two step mammalian biofilm treatment processes and systems” (priority 2008, dated 2014).
Values after ≈ are worked out from the molar mass of the structure shown.

System: S. aureus Xen 31
Conditions: stated as established

O=C(O)c1cn(C2CC2)c2cc(N3CCNCC3)c(F)cc2c1=O [ciprofloxacin]
minimum inhibitory concentration: 3 µg/mL (≈ 9.05 µM)
